{"source": "patent US20050215531A1", "about": "“Use of edg receptor binding agents in cancer” (priority 2002, published 2005)", "key": {"[1]": {"system": "S1P- or VEGF-induced growth of vascularized tissue around the chamber", "assay": "Antiangiogenic activity, subcutaneous porous chamber (S1P or VEGF) in mice", "assay_type": "in vivo", "details": "once a day for 4 days; Compound A orally 0.3, 3, 30 or 50 mg/kg; Compound C enantiomers i.v. 2.5 mg/kg", "experimental": "Porous chambers containing (I) sphingosine-1-phosphate (5 μM/chamber) or (ii) human VEGF (1 μg/chamber) in 0.5 ml of 0.8% w/v agar (containing heparin, 20 U/ml) are implanted subcutaneously in the flank of mice. S1P or VEGF induces the growth of vascularized tissue around the chamber. This response is dose-dependent and can be quantified by measuring the weight and blood content of the tissue. Mice are treated once a day (i) orally with Compound A (0.3, 3, 30 or 50 mg/kg) or (ii) intravenously with the R enantiomer of Compound C (2.5 mg/kg) or (iii) intravenously with the S enantiomer of Compound C (2.5 mg/kg) or (iv) orally or intravenously with vehicle (5% glucose, 10 ml/kg), starting 4-6 hours before implantation of the chambers and continuing for 4 days. The animals are sacrificed for measurement of the vascularized tissues 24 h after the last dose. The weight and blood content of the vascularized tissues around the chamber is determined. Animals treated with Compound A or with the R or S enantiomer of Compound C show reduced weight and/or blood content of the vascularized tissues compared to animals treated with vehicle alone."}, "HUVEC": {"system": "HUVEC", "assay": "In vitro angiogenesis (tube formation) assay on Matrigel", "assay_type": "cell-based, human", "experimental": "(§1) Human umbilical vein endothelial cells (HUVEC) are cultured at 37° C. and 5% CO2 in medium M199 supplemented with 20% SCS (HyClone, Logan, Utah), 1 U/ml heparin, 50 μg/ml ECGS, 2 mM glutamine, 100 U/ml penicillin and 0.1 mg/ml streptomycin. Cells are used for experiments up to passage number 5. Short-starved HUVEC are obtained by starving with 1% SCS-containing M199 for 5 h. Recombinant human VEGF165 is obtained from PromoCell (Heidelberg, Germany). Phospho-specific ERK½, p3B kinase polyclonal antibodies, nonphospho ERK½ antibodies and LumiGLO chemiluminescent reagent are from New England BioLabs (Beverly, Mass.), polyclonal IKB antibodies from Santa Cruz Biotechnology (Santa Cruz, Calif.). Peroxidase-conjugated donkey anti-rabbit immunoglobulin G (IgG) and sheep anti-mouse IgG are purchased from Amersham LIFE SCIENCE (Amersham Place, England). lmmobilon-P transfer membranes are products of Millipore (Bedford, Mass.). S is obtained from Sigma Chemical Co.; S1P is from Biomol. Compound A-phosphate stock solution is prepared by the following protocol. Compound A-phosphate is dissolved in methanol tracing with concentrated HCl (0.5 mg Compound A-phosphate in 500 μl of methanol plus 2 μl of HCl). Solvent from the resulting solution is evaporated under vacuum and the residue obtained is redissolved (variant 1) in 0.1% of defatted BSA solution in sterile deionized water (500 μl) or (variant 2) in 0.5% Triton X-100 in deionized water. The resulting stock solutions (2.5 mM) are sonicated and stored at 4° C.\nMorphogenesis of endothelial cells into capillary-like structures on Growth Factor Reduced Matrigel Matrix (BD Bioscience) is performed according to the manufacture procedure. Briefly, HUVEC are trypsinized, resuspended in serum-free Ml 99 medium containing soybean trypsin inhibitor (1 mg/ml, Sigma). After centrifugation cells are resuspended in serum-free medium at a density 0.5×10^5 cells/ml, and cell suspension is seeded in 96-well cell culture plates (Costar, Corning Incorporated) precoated with 50 μl of Matrigel in the absence or presence of various stimuli: VEGF at 1.5 nM, S1P at 0.1-2 μM, S at 0.5-2 μM, Compound A at 0.5-2 μM, and Compound A-phosphate at 0.1-2 μM. Eight hours later, cells on Matrigel are fixed with 3% formaldehyde in PBS and kept at 4° C. Results are quantitated from images made with a Nikon Diaphot microscope equipped with a cooled CCD camera (Kappa GmbH, Gleichen, Germany) by direct counting of branching points on two microscopic fields from each well done in duplicates.\nThe effect of Compound A and Compound A-phosphate on morphogenic differentiation of endothelial cells is determined using an in vitro angiogenesis assay on Matrigel. Endothelial cell morphogenesis is a complex process that requires cell-extracellular matrix interactions, followed by matrix remodelling, stimulated migration, cell-cell interactions, and perivascular proteolysis. […] This may be interpreted as a possible involvement of EDG-1 (S1P1) receptor-mediated signaling events in Compound A-phosphate-stimulated bioresponses (see e.g. FIG. 3). […] Importantly, high concentrations of S and Compound A (2-5 μM) inhibited VEGF-triggered tube formation."}, "ERK½ MAP kinases": {"system": "ERK½ MAP kinases", "assay": "Western blot, activation of ERK½ MAP kinases in HUVEC", "assay_type": "cell-based, human", "details": "endothelial cells, 5 minute to 60 minute treatment", "experimental": "as §1\nAfter various treatments, the cells are washed twice with cold PBS, lysed in 100 μl of Laemmli buffer, scraped and heated for 5 min at 95° C. Total cell lysates are separated by SDS-PAGE and transferred to Immobilon-P membrane. The membrane is blocked for 30 minutes with PBS containing 0.1% Tween-20 and 3% skim milk and incubated for 1 hour at RT with a primary antibody diluted in blocking buffer. The membrane obtained is washed three times for 5 minutes with PBS containing 0.1% Tween-20 and incubated with peroxidase-conjugated secondary antibody for 1 hour at RT. After a washing step, the membrane is incubated for 1 minute with ECL reagent and exposed to film as required. For reprobing with another antibody, the membrane is washed twice in PBS, stripped for 30 min at 55° C. with stripping buffer (62.5 mM Tris-HCL, pH 6.8, 2% SDS, 100 mM 2-mercaptoethanol) and washed three times for 5 minutes with PBS at RT. The membrane is stored wet wrapped in SaranWrap at 4° C. after each immunodetection.\nSignal transduction via MAP idnases plays a key role in a variety of endothelial cell functions. Treatment of HUVEC with Compound A-phosphate at 0.5 μM may result in transient activation of ERK½ with a peak of phosphorylation/activation at 10 minutes and returning to baseline by 20 minutes (see e.g. FIG. 5). No activation of p38 kinase and JNK½ by Compound A-phosphate is detectable in HUVEC. […] To estimate the possible role of inflammatory/NFκB-dependent program in Compound A-phosphatestimulated bioresponses of endothelial cells, the membranes are reprobed with anti-IκB antibodies. IκB levels are not affected by Compound A-phosphate treatment."}, "tissue factor": {"system": "tissue factor", "assay": "Clotting assay, tissue factor activity on HUVEC", "assay_type": "cell-based, human", "experimental": "as §1\nCells are seeded in 6-well plates at 80-90% confluency and grown overnight. Cells are scraped from the plates and analyzed for tissue factor activity according to the method as described in Clauss, M., J. Biol. Chem. 271,17629-17634 (1996), Mechtcheriakova, D., Blood 93,3811-3823 (1999). Briefly, after induction for 4 hours with VEGF (1.5 nM), TNF-α (100 U/ml), S (0.5-2 μM), S1P (0.5-2 μM), Compound A (0.5-2 μM), and Compound A-phosphate (0.5-2 μM), cells are washed twice and then scraped in 1 ml clotting buffer (12 mM sodium acetate, 7 mM diethylbarbitate and 130 mM sodium chloride; pH 7.4). 50 μl of resuspended cells are mixed with 50 μl of citrated plasma, and clotting times are determined after recalcfication with 50 μl of 20 mM CaCl2 solution at 37° C. TF-equivalents are determined by using a standard curve obtained from rabbit brain thromboplastin.\nAn important characteristic feature of both classical inflammatory stimulus TNF-α and the main angiogenic growth factor VEGF on endothellal cells is their potency to upregulate tissue factor. Compound A, Compound A-phosphate, S or S1P are tested whether they also do induce tissue factor on HUVEC. […] The data obtained together indicate that Compound A, Compound A-phosphate, S and S1P mechanistically work distinctly to anglogenic VEGF and inflammatory TNF-α."}, "[2]": {"assay": "Acute toxicity p.o. in rats"}, "[3]": {"assay": "Acute toxicity p.o. in monkeys"}, "[4]": {"system": "mouse breast cancer cell line JygMC(A)", "assay": "In vitro antitumor activity: proliferation of synchronised mouse breast cancer cells", "assay_type": "cell-based", "details": "hydrochloride salt form, Coulter counter and SRB colorimetric assay", "experimental": "A mouse breast cancer cell line originally isolated from mammary carcinomas is used, e.g. JygMC(A). The cell number is adjusted to 5×10^5 for plating in fresh medium before the procedure. Cells are incubated with fresh medium containing 2.5 mM of thymidine without FCS for 12 h and then washed twice with PBS, followed by addition of fresh medium with 10% FCS and additionally incubated for another 12 h. Thereafter the cells are incubated with fresh medium containing 2.5 mM of thymidine without FCS for 12 h. To release the cells from the block, the cells are washed twice with PBS and replated in fresh medium with 10% FCS. After synchronisation the cells are incubated with or without various concentrations of a compound of formula I for 3, 6, 9, 12, 18 or 24 h. The cells are harvested after treatment with 0.2% EDTA, fixed with ice-cold 70% ethanol solution, hydrolyzed with 250 μg/ml of RNaseA (type 1-A: Sigma Chem. Co.) at 37° C. for 30 mn and stained with propidium iodide at […] for 20 mn. After the incubation period, the number of cells is determined both by counting cells in a Coulter counter and by the SRB colorimetric assay. Under these conditions an S1P agonist, e.g. Compound B in hydrochloride salt form, inhibits the proliferation of the tumor cells at concentrations ranging from 10^−12 to 10^−6 M."}, "[5]": {"system": "human A375 melanoma cells", "assay": "In vivo antitumor activity, A375 melanoma transplanted into BALB/c-nu/nu mice", "details": "hydrochloride salt form, 0.5 to 5 mg/kg, 2 week treatment", "description": "Antitumor activity is expressed as T/C% (mean increase in tumor volumes of treated animals divided by the mean increase of tumor volumes of control animals multiplied by 100).\nAliquots of cancer cells (1×10^7), e.g. human A375 melanoma cells, are transplanted into BALB/c-nu/nu mice. When the tumors have reached ca. 10×10 mm in size, the animals are assigned randomly to four subgroups and the treatment with a compound of formula I is initiated. Animals are sacrificed after 2 week treatment, at which times tumors and tissues are harvested and prepared for morphological and molecular analysis. The size of the tumors is determined with a caliper."}}, "data": [{"compound": "CCCCCCCCc1ccc(CCC(N)(CO)CO)cc1.Cl", "note": "[Compound A, 2-amino-2-[2-(4-octylphenyl)ethyl]propane-1 ,3-diol]", "values": [{"measurement": "weight and/or blood content of the vascularized tissues compared to vehicle", "setting": "[1]", "value": "reduced"}, {"measurement": "effect on capillary-like network formation", "setting": "HUVEC; 0.5-1 μM", "value": "weak, in comparison to Compound A-phosphate, but consistent enhancing effect"}, {"measurement": "effect on VEGF-mediated remodelling", "setting": "HUVEC; 0.5-1 μM, with VEGF", "value": "does not attenuate"}, {"measurement": "effect on VEGF-triggered tube formation", "setting": "HUVEC; high concentrations, 2-5 μM", "value": "inhibited"}, {"measurement": "MAP kinase activation", "setting": "ERK½ MAP kinases", "value": "Neither Compound A nor S are able to induce MAP kinase activation"}, {"measurement": "effect on TNF-α-induced tissue factor", "setting": "tissue factor; TNF-α 100 U/ml", "value": "not TNF-α-induced"}, {"measurement": "effect on VEGF-induced tissue factor", "setting": "tissue factor; VEGF 1.5 nM", "value": "slightly enhance"}, {"measurement": "tissue factor activity", "setting": "tissue factor; compound alone or in combinations, 0.5-2 μM, 4 hours", "value": "none of these compounds alone or in combinations may elevate tissue factor activity"}, {"measurement": "acute LD60", "setting": "[2]", "value": "> 10", "unit": "mg/kg"}, {"measurement": "acute LD60", "setting": "[3]", "value": "> 10", "unit": "mg/kg"}]}, {"compound": "CCCCCCCOc1ccc(CCC(C)(N)CO)cc1", "note": "(stereo not drawn) [R enantiomer of Compound C, 2-amino-4-(4heptyloxyphenyl)-2-methyl-butanol]", "values": [{"measurement": "weight and/or blood content of the vascularized tissues compared to vehicle", "setting": "[1]", "value": "reduced"}]}, {"compound": "NC(CO)(CO)CCc1ccc(C(=O)CCCCc2ccccc2)cc1", "note": "[Compound B, 2-amino-2-{2-[4-(1-oxo-5-phenylpentyl)phenyl]ethyl}propane-1,3-diol]", "values": [{"measurement": "concentrations at which the proliferation of the tumor cells is inhibited", "setting": "[4]", "value": "10^−12 to 10^−6 M"}, {"measurement": "tumor growth vs saline control", "setting": "[5]", "value": "slows tumor growth"}]}]}
